From patent US20080031868A1, “HUMAN LYSOZYME MEDICINE, ITS MANUFACTURING METHOD AND APPLICATION THEREOF” (priority 2005, published 2008)
≈ marks a conversion by molar mass, not a printed value.

Experiments:
[1] = system: Staphylococcus aureus MRSABAA-42; experiment: Bronchus pneumonia mice infected by Staphylococcus aureus MRSA BAA-42, treated by atomization inspiring; format: in vivo; conditions: mice lung; atomization inspired 6.0; the 1th day
From the text: A, atomization sucks gene recombinant Human Lysozyme (HLZ) cured bronchus pneumonia mice infected by Staphylococcus aureus MRSABAA-42
Choose the test lawn, after washing with the physiological saline, correcting by McB tubes for comparative tests bacterium solution concentration 2#MCF, turbidity of 2.7×10^11 CFU/ml, diluted with physiological saline separately into 10^−1, 10^−2, 10^−3 bacterium solution, drip the nose to infect for mice respectively (anaesthetize the mice with the pentobarbital first, 30 mg/kg, ip.), 0.05 ml a mouse. Observed the mice body changing, and killed parts of mice after infecting 48 h, fetch the whole lung to tissue homogenate, 10 times diluted by physiological saline, draw 0.1 m1 to MH agar plate surface, to cultivate last night 35° C., Gram staining, test under microscope, and count plate. At the same time recorded the number of death mice, and collect some mice tracheas, bronchus, lung tissue and do pathology tissue observing.
It is called medial lethal dose (LD50) that bacterium amount caused mice appearing lung pharmacology change and 50% died. LD50was used as experimental treatment amount.
Infected mice is divided into 10 groups at random according to the weight, 30 every groups.
Designed dosage: The concentration of recombinant human lysozyme medicine was 15000 u/ml as in clinical atomization therapy. Its dose was 15000 u per time and administrated one time everyday, I.e 0.5 mg per time everyday. The dose was 1.3×10-3 mg a mice (counted by weight of 20 g). […] To ensure the breathing amount of lysozyme, the breathing time were extended for 0.5 hour. Based on 0.5 mg/ml, the concentration of 0.25 mg/ml, 1.0 mg/ml and 2.0 mg/ml were set respectively as treatment dose.
The same group mice were put into the ultrasonic atomizer and then treated with human lysozyme atomized in the compression sprayer (PARL.BOY), twice a day, 5 days in succession.
Every group, from the infected day to calculae, the animal incidence and death were recorded 14 days in succession. Every group collected 2-3 mice and killed them the 14th day after infecting, did bacteriology detection after lung homogenate, killed surplus animal to fetch the trachea, bronchus, fixed in 10% of the formaldehyde solution after weighing, did pathology check.
The bacterial culture: A part of mice were killed after infecting 24 h, fetched the whole lung weighting, added 2 ml degerming PBS solution 10 times diluted, draw 0.1 mL to MH agar plate surface, to cultivate last night 35° C., counted in the cultivation plateform of 30-300 CF, if the two close level tissue fluid is 30-300 CFU, counted the low density (make 3 plateforms at the same time each tissue fluid, calculate the average). Collected 2 mice to do bacterial culture in every group at random in 5, 7, 14 days after administration.
Pathology detection: After dissecting the mice, observed the trachea, bronchus, syncretio of lung, chest wall and membrana pleuralis, the volume of lung and size of lung focus, the lung surface was congested, hydroncus, consolidation and atelectasis by the naked eye. Took out the trachea, bronchus and the whole lung tissue to fixed with 10% of the formaldehyde solution, draw materials.

[2] = system: Staphylococcus aureus MRSABAA-42; experiment: as above; format: in vivo; conditions: for accumulative survival number: 30 mice; for accumulative survival number / survival rate (%): 14 days; for survival elevation rate (%): versus infected model group; for bacterial number: mice lung
[3] = 0.75 mg/ml atomization inspired

Structure (SMILES): CC[C@H]1OC(=O)[C@H](C)[C@@H](O[C@H]2C[C@@](C)(OC)[C@@H](O)[C@H](C)O2)[C@H](C)[C@@H](O[C@@H]2O[C@H](C)C[C@H](N(C)C)[C@H]2O)[C@](C)(OC)C[C@@H](C)C(=O)[C@H](C)[C@@H](O)[C@]1(C)O [Clarithromycin, reference compound]
- bacterial number [1]: 241.9 ± 16.62 CFU/mL
- average survival day (day, x ± s) [2, 3]: 7.67 ± 4.01 days
- accumulative survival number [2, 3]: 5
- survival rate (%) [2, 3]: 16.7%
- Death number(piece) ([2]; 0.75 mg/ml atomization inspired, day 1): 0 piece
- Death number(piece) ([2]; 0.75 mg/ml atomization inspired, day 2): 0 piece
- Death number(piece) ([2]; 0.75 mg/ml atomization inspired, day 3): 4 piece
- Death number(piece) ([2]; 0.75 mg/ml atomization inspired, day 4): 4 piece
- Death number(piece) ([2]; 0.75 mg/ml atomization inspired, day 5): 3 piece
- Death number(piece) ([2]; 0.75 mg/ml atomization inspired, day 6): 4 piece
- Death number(piece) ([2]; 0.75 mg/ml atomization inspired, day 7): 4 piece
- Death number(piece) ([2]; 0.75 mg/ml atomization inspired, day 8): 2 piece
- Death number(piece) ([2]; 0.75 mg/ml atomization inspired, day 9): 3 piece
- Death number(piece) ([2]; 0.75 mg/ml atomization inspired, day 10): 1 piece
- Death number(piece) ([2]; 0.75 mg/ml atomization inspired, day 11): 0 piece
- Death number(piece) ([2]; 0.75 mg/ml atomization inspired, day 12): 0 piece
- Death number(piece) ([2]; 0.75 mg/ml atomization inspired, day 13): 0 piece
- Death number(piece) ([2]; 0.75 mg/ml atomization inspired, day 14): 0 piece
- survival elevation rate (%) [2, 3]: 0.00%
- average survival day (day, x ± s) ([2]; 1.5 mg/ml atomization inspired): 8.70 ± 4.65 days
- accumulative survival number ([2]; 1.5 mg/ml atomization inspired): 12
- survival rate (%) ([2]; 1.5 mg/ml atomization inspired): 40.0%
- Death number(piece) ([2]; 1.5 mg/ml atomization inspired, day 1): 0 piece
- Death number(piece) ([2]; 1.5 mg/ml atomization inspired, day 2): 0 piece
- Death number(piece) ([2]; 1.5 mg/ml atomization inspired, day 3): 4 piece
- Death number(piece) ([2]; 1.5 mg/ml atomization inspired, day 4): 4 piece
- Death number(piece) ([2]; 1.5 mg/ml atomization inspired, day 5): 3 piece
- Death number(piece) ([2]; 1.5 mg/ml atomization inspired, day 6): 4 piece
- Death number(piece) ([2]; 1.5 mg/ml atomization inspired, day 7): 0 piece
- Death number(piece) ([2]; 1.5 mg/ml atomization inspired, day 8): 2 piece
- Death number(piece) ([2]; 1.5 mg/ml atomization inspired, day 9): 0 piece
- Death number(piece) ([2]; 1.5 mg/ml atomization inspired, day 10): 1 piece
- Death number(piece) ([2]; 1.5 mg/ml atomization inspired, day 11): 0 piece
- Death number(piece) ([2]; 1.5 mg/ml atomization inspired, day 12): 0 piece
- Death number(piece) ([2]; 1.5 mg/ml atomization inspired, day 13): 0 piece
- Death number(piece) ([2]; 1.5 mg/ml atomization inspired, day 14): 0 piece
- survival elevation rate (%) ([2]; 1.5 mg/ml atomization inspired): 23.3%
- average survival day (day, x ± s) ([2]; 3 mg/ml atomization inspired): 11.20 ± 3.53 days
- accumulative survival number ([2]; 3 mg/ml atomization inspired): 18
- survival rate (%) ([2]; 3 mg/ml atomization inspired): 60.0%
- Death number(piece) ([2]; 3 mg/ml atomization inspired, day 1): 0 piece
- Death number(piece) ([2]; 3 mg/ml atomization inspired, day 2): 0 piece
- Death number(piece) ([2]; 3 mg/ml atomization inspired, day 3): 0 piece
- Death number(piece) ([2]; 3 mg/ml atomization inspired, day 4): 0 piece
- Death number(piece) ([2]; 3 mg/ml atomization inspired, day 5): 0 piece
- Death number(piece) ([2]; 3 mg/ml atomization inspired, day 6): 4 piece
- Death number(piece) ([2]; 3 mg/ml atomization inspired, day 7): 4 piece
- Death number(piece) ([2]; 3 mg/ml atomization inspired, day 8): 4 piece
- Death number(piece) ([2]; 3 mg/ml atomization inspired, day 9): 0 piece
- Death number(piece) ([2]; 3 mg/ml atomization inspired, day 10): 0 piece
- Death number(piece) ([2]; 3 mg/ml atomization inspired, day 11): 0 piece
- Death number(piece) ([2]; 3 mg/ml atomization inspired, day 12): 0 piece
- Death number(piece) ([2]; 3 mg/ml atomization inspired, day 13): 0 piece
- Death number(piece) ([2]; 3 mg/ml atomization inspired, day 14): 0 piece
- survival elevation rate (%) ([2]; 3 mg/ml atomization inspired): 43.3%
- average survival day (day, x ± s) ([2]; 6 mg/ml atomization inspired): 11.60 ± 3.48 days
- accumulative survival number ([2]; 6 mg/ml atomization inspired): 20
- survival rate (%) ([2]; 6 mg/ml atomization inspired): 66.7%
- Death number(piece) ([2]; 6 mg/ml atomization inspired, day 1): 0 piece
- Death number(piece) ([2]; 6 mg/ml atomization inspired, day 2): 0 piece
- Death number(piece) ([2]; 6 mg/ml atomization inspired, day 3): 0 piece
- Death number(piece) ([2]; 6 mg/ml atomization inspired, day 4): 0 piece
- Death number(piece) ([2]; 6 mg/ml atomization inspired, day 5): 0 piece
- Death number(piece) ([2]; 6 mg/ml atomization inspired, day 6): 4 piece
- Death number(piece) ([2]; 6 mg/ml atomization inspired, day 7): 4 piece
- Death number(piece) ([2]; 6 mg/ml atomization inspired, day 8): 2 piece
- Death number(piece) ([2]; 6 mg/ml atomization inspired, day 9): 0 piece
- Death number(piece) ([2]; 6 mg/ml atomization inspired, day 10): 0 piece
- Death number(piece) ([2]; 6 mg/ml atomization inspired, day 11): 0 piece
- Death number(piece) ([2]; 6 mg/ml atomization inspired, day 12): 0 piece
- Death number(piece) ([2]; 6 mg/ml atomization inspired, day 13): 0 piece
- Death number(piece) ([2]; 6 mg/ml atomization inspired, day 14): 0 piece
- survival elevation rate (%) ([2]; 6 mg/ml atomization inspired): 50.0%
- The 4th day (bacterial number, head incomplete) ([2]; dose 1.5): 3.4 ± 0.25
- The 5th day (bacterial number, head incomplete) ([2]; dose 1.5, the 5th day): 64.40 ± 15.69
- The 4th day (bacterial number, head incomplete) ([2]; dose 3): 2.5 ± 0.22
- The 5th day (bacterial number, head incomplete) ([2]; dose 3, the 5th day): 60.70 ± 13.98
- The 4th day (bacterial number, head incomplete) ([2]; dose 6): 2.2 ± 0.12
- The 5th day (bacterial number, head incomplete) ([2]; dose 6, the 5th day): 57.60 ± 15.37
- bacterial number ([2]; atomization inspired 1.5, 0 day): 350 ± 21.5 CFU/mL
- bacterial number ([2]; atomization inspired 1.5, the 1th day): 247.10 ± 21.31 CFU/mL
- bacterial number ([2]; atomization inspired 1.5, the 3rd day): 146.90 ± 13.55 CFU/mL
- bacterial number ([2]; atomization inspired 1.5, the 5th day): 64.40 ± 15.69 CFU/mL
- bacterial number ([2]; atomization inspired 1.5, the 14th day): 28.0 ± 2.60 CFU/mL
- bacterial number ([2]; atomization inspired 3.0, 0 day): 350 ± 21.5 CFU/mL
- bacterial number ([2]; atomization inspired 3.0, the 1th day): 246.30 ± 19.03 CFU/mL
- bacterial number ([2]; atomization inspired 3.0, the 3rd day): 141.10 ± 18.54 CFU/mL
- bacterial number ([2]; atomization inspired 3.0, the 5th day): 60.70 ± 13.98 CFU/mL
- bacterial number ([2]; atomization inspired 3.0, the 14th day): 24.0 ± 2.00 CFU/mL
- bacterial number ([2]; atomization inspired 6.0, 0 day): 350 ± 21.5 CFU/mL
- bacterial number ([2]; atomization inspired 6.0, the 3rd day): 134.60 ± 13.58 CFU/mL
- bacterial number ([2]; atomization inspired 6.0, the 5th day): 57.60 ± 15.37 CFU/mL
- bacterial number ([2]; atomization inspired 6.0, the 14th day): 10.0 ± 8.00 CFU/mL
- 95% feasible limits of ED50 ([2]; mice survival over 14 days, Bliss method): 1760 to 4020 µg/mL
- ED50 (median effective dose) ([2]; mice survival over 14 days, Bliss method, atomization inspired): 2550 µg/mL (≈ 3.41 mM)
